What was measured:
[1] = tested on: Plasmodium falciparum 3D7 strain; test: Anti-malarial screen, parasite growth by SybrGreen staining; assay type: cell-based; settings: 60 hours incubation, triplicates; for inhibition at 10 µM / EC50: Plasmodium falciparum, 3D7; for EC50: serial dilution from 10 μM to 1 nM
Procedure: Plasmodium falciparum 3D7 strain from Malaria Research and Reference Reagent Resource Center (ID NO: MRA-102). Plasmodium falciparum (3D7) is cultured in the laboratory as per standard protocols [AzarRadfar, Darío Méndez, Carlos Moneriz, María Linares, Patricia Marín-García, Antonio Puyet, AmaliaDiez & José M Bautista. Synchronous culture of Plasmodium falciparum at high parasitemia levels Nature Protocols 2009, 4, 1899-1915]. When the parasitemia (i.e., percent infection of human RBCs) reaches >15%, 1 mL of culture suspension is layered over 10 mL of 60% percoll (pH and osmolality adjusted using PBS) and centrifuged at 3000 rpm for 5 min using a swing out rotor. This separates late stage parasite (trophozoite and schizont) infected RBC (as a band on top of the percoll cushion) from early stage parasite (ring) infected and uninfected RBCs (as pellet at the bottom of the percoll cushion). The >90% enriched late stage parasite infected RBCs are collected, washed with complete RPMI media and added to a 2% hematocrit RBC suspension such that the final parasitemia is around 2%. The parasites grow in a synchronous manner for at least 2 rounds of asexual cycle (48 hours). This culture is then used for anti-malarial screening as given below.
200 μL of ring stage parasite culture at ˜2% parasitemia (see above) is added to each well in a 96 well plate pre-seeded with the compound of interest at the required concentration. 1 mM and 10 mM stocks dilutions of the compounds are prepared in cell culture grade DMSO, and the final concentration used in the assay is either 10 μM (for identifying molecules affecting parasite growth) or a serial dilution from 10 μM to 1 nM (for estimating the dose response and EC50 value). All compounds are plated in triplicates as biological replicates. Each 96 well plate also includes negative control (compound untreated & DMSO only treated culture) and positive control (standard anti-malarial compounds treated culture). […] After plating, the culture is incubated in standard growth condition for 60 hours, after which the cultures are processed for testing the effect of compounds on parasite growth as given below.
The inventors have standardized a SybrGreen dye based staining protocol for estimating parasite growth, which is a modification of previously published protocol [Plouffe et. al, 2008]. SybrGreen dye binds to DNA and only the DNA bound dye gives a specific fluorescence emission ([…]) when excited ([…]). Since only the parasites have DNA (as human RBCs are devoid of nucleus), the SybrGreensignal is a direct indictor of parasite growth. A standard fluorescent plate reader issued for assay read out, and the staining is done as follows. 25 μL of 10× stock containing of dye and Triton X100 (0.5%) is added to each of 200 μL culture growing in a 96 well plate and mixed well and incubated for 15 min-30 min before reading fluorescence emission using the plate reader at the appropriate wavelength.

[2] = 10 μM compound, ring stage culture ~2% parasitemia

O=Cc1nc2ccccc2c2ccn(S(=O)(=O)c3ccccc3)c12 [Compound of formula 3, 3-(phenylsulfonyl)-3H-Pyrrolo[2,3-c]quinoline-4-carbaldehyde]
inhibition at 10 µM [1, 2]: 88.3%
EC50 [1]: > 10 µM

CCN(CC)Cc1nc2ccccc2c2ccn(S(=O)(=O)c3ccccc3)c12 [Ia, N-ethyl-N-((3-(phenylsulfonyl)-3H-pyrrolo [2,3-c]quinolin-4-yl)methyl)ethanamine]
inhibition at 10 µM [1, 2]: 99.7%
EC50 [1]: 0.27 µM

CCN(CC)Cc1nc2ccccc2c2cc[nH]c12 [Ib, N-((3H-pyrrolo[2,3-c]quinolin-4-yl)methyl)-N-ethylethanamine]
inhibition at 10 µM [1, 2]: 97%
EC50 [1]: 8.58 µM

O=S(=O)(c1ccccc1)n1ccc2c3ccccc3nc(CN(CCO)CCO)c21 [Ic]
inhibition at 10 µM [1, 2]: 93.6%
EC50 [1]: > 10 µM
melting point: 98 to 99 °C

OCCN(CCO)Cc1nc2ccccc2c2cc[nH]c12 [Id]
inhibition at 10 µM [1, 2]: 91.5%
EC50 [1]: 4.48 µM

CN(Cc1nc2ccccc2c2ccn(S(=O)(=O)c3ccccc3)c12)c1ccccc1 [Ie, N-methyl-N-((3-(phenylsulfonyl)-3H-pyrrolo[2,3-c]quinolin-4-yl)methyl)aniline]
inhibition at 10 µM [1, 2]: 55.5%
EC50 [1]: > 10 µM
melting point: 146 to 148 °C

CN(Cc1nc2ccccc2c2cc[nH]c12)c1ccccc1 [If, N-((3H-pyrrolo[2,3-c]quinolin-4-yl)methyl)-N-methyl aniline]
inhibition at 10 µM [1, 2]: 89.9%
EC50 [1]: 8.72 µM
melting point: 139 to 141 °C

O=S(=O)(c1ccccc1)n1ccc2c3ccccc3nc(CN3CCOCC3)c21 [Ig, 4-((3-(phenylsulfonyl)-3H-Pyrrolo[2,3-c]quinolin-4-yl)methyl)morpholine]
inhibition at 10 µM [1, 2]: 79.4%
EC50 [1]: 7.86 µM
melting point: 138 to 140 °C

c1ccc2c(c1)nc(CN1CCOCC1)c1[nH]ccc12 [Ih, 4-((3H-pyrrolo[2,3-c]quinolin-4-yl)methyl)morpholine]
inhibition at 10 µM [1, 2]: 86.8%
EC50 [1]: 1.99 µM
melting point: 148 to 150 °C

O=S(=O)(c1ccccc1)n1ccc2c3ccccc3nc(CN(Cc3nc4ccccc4c4ccn(S(=O)(=O)c5ccccc5)c34)c3ccccc3)c21 [Ii, N,N-bis((3-(phenylsulfonyl)-3H-pyrrolo[2,3-c]quinolin-4-yl)methyl)aniline]
inhibition at 10 µM [1, 2]: 88.3%
EC50 [1]: > 10 µM
melting point: 188 to 190 °C

c1ccc(N(Cc2nc3ccccc3c3cc[nH]c23)Cc2nc3ccccc3c3cc[nH]c23)cc1 [Ij, N,N-bis((3H-pyrrolo[2,3-c]quinolin-4-yl)methyl)aniline]
inhibition at 10 µM [1, 2]: 84.1%
EC50 [1]: > 10 µM
melting point: 242 to 244 °C

COc1ccc(N(C)Cc2nc3ccccc3c3ccn(S(=O)(=O)c4ccccc4)c23)cc1 [Ik, 4-methoxy-N-methyl-N-((3-(phenylsulfonyl)-3H-pyrrolo[2,3-c]quinolin-4-yl)methyl)aniline]
inhibition at 10 µM [1, 2]: 90.2%
EC50 [1]: > 10 µM
melting point: 48 to 50 °C

COc1ccc(N(C)Cc2nc3ccccc3c3cc[nH]c23)cc1 [Il, N-((3H-pyrrolo[2,3-c]quinolin-4-yl)methyl)-4-methoxy-N-methylaniline]
inhibition at 10 µM [1, 2]: 94.1%
EC50 [1]: 0.74 µM

CCN(CC)CCCC(C)N(C)Cc1nc2ccccc2c2cc[nH]c12 (stereo not drawn) [Im, N^4-((3H-pyrrolo [2,3-c]quinolin-4-yl)methyl)-N^1,N^1-diethyl-N^4-methylpentane-1,4-diamine]
inhibition at 10 µM [1, 2]: 98.5%
EC50 [1]: 0.17 µM

Cc1nc2ccccc2c2[nH]ccc12 [In, 4-methyl-1H-pyrrolo[3,2-c]quinoline]
inhibition at 10 µM [1, 2]: 99.1%
EC50 [1]: 3.7 µM

O=c1c2ccccc2ncn1Cc1nc2ccccc2c2cc[nH]c12 [NCLite-M1, (3-((3H)-pyrrolo[2,3-c]quinoline-4-yl)methyl)quinazolin-4(3H)-one, reference compound]
Average % growth Inhibition [1, 2]: 9.18%

Source: patent publication US12145931B2, “Substituted pyrrolo[2,3-c]quinolines as antimalarials” (COUNCIL OF SCIENTIFIC AND INDUSTRIAL RESEARCH, priority 2018, dated 2024)
